# Measurements: US20090324509A1, “INSECTICIDAL COMPOSITION” (LIVIE BIOPESTICIDES LIMITED, priority 2006, published 2009)
# Columns and labels:
# Assay type in all cases: in vivo
# [1] = tested on: Deer Tick (Ixodes ricinus); test: Potter tower spray bioassay on adult arthropods, mortality; settings: 1.0 ml/pot, adults, room temperature; % of negative control
# Experimental: (§1) The IGR's Methoprene and Diflubenzuron were sources as WHO standard preparations at 20 mg/l technical from WHO, Geneva, and used as positive controls or mixtures (50:50) with 5.0% p-cymene.
# (§2) Laboratory colonies of the cat flea (Ctenocephalides felis) and the Deer Tick (Ixodes ricinus) were used in bioassays undertaken at room temperature.
# (§3) Bioassays consisted of plastic pots with a netting cover holding batches of 10 adult insects of each species being placed under a potter tower which then sprayed a fine particulate aerosol of even rate. Application rates were always 1.0 ml/pot which is sufficient to wet the inner surface without leaving free liquid residues. After exposure to the treatment or a 5% ethanol control, arthropods were then transferred to a clean plastic holding pot and held at room temperature for 3 days with mortality scored after 24 & 72 hours. Mortality was calculated as % of negative control.
# [2] = tested on: cat flea (Ctenocephalides felis); test: as above; settings: 1.0 ml/pot, adults, room temperature; % of negative control
# Experimental: as §1, §2, §3
# [3] = tested on: a range of pests including Musca domestica, Periplaneta Americana, Blatella germanica and others; test: Tests of insecticidal activity of p-cymene against a range of pests; settings: 15 listed pest species
compound,measurement,setting,value
Cc1ccc(C(C)C)cc1 [p-cymene],24 hours mortality,[1],28%
same,72 hours mortality,[1],55%
same,24 hours mortality,[2],76%
same,72 hours mortality,[2],88%
same,insecticidal activity,[3],broad spectrum insecticidal activity
